# Data taken from patent US11077139B2, “Combination of an arsenic compound and at least one retinoid for treating acute myeloid leukemia” (INSERM (Institut National de la Sante et de la Recherche …, priority 2013, dated 2021).
# How the values were obtained:
# [1] = test system: OCI-AML3 cells (mutated NPM-1); type: cell-based; settings: addition of the proteasome inhibitor
# Protocol: Cells were seeded at a density of 2×10^5/ml. Primary AML cells (from either peripheral blood or BM) were extracted following ficoll separation and cultured in MEM-α supplemented with 20% FBS and antibiotics. […] Cell growth was assessed using the CellTiter 96® cell proliferation assay kit (Promega Corp., Madison, Wis., USA) or by trypan blue dye assay.
# Proliferation experiments on cell lines were repeated at least three times. Data are reported as the mean+/−standard error. […] CI was used to assess synergistic effects (CI<1), additive effects (CI=1) or antagonistic effects (CI>1). Two statistical tests were performed to validate significance: the t-test and the one-way analysis of variance (ANOVA) test. *, ** and *** indicate p values≤0.05; 0.01 and 0.001, respectively. p-values less than 0.05 were considered significant.
# mutant NPM-1 = experiment: Western blot for NPM-1 and mutated NPM-1; type: cell-based
# Protocol: Cells were solubilized at 4° C. in lysis buffer. […] Blots were incubated with specific antibodies, washed and proteins were visualized using the ECL chemiluminescence system (Santa Cruz, Germany). The following antibodies were used; monoclonal anti-wt NPM-1 (Abnova, Abcam), polyclonal anti-mutated NPM-1 (Abnova), anti-actin (Santa-cruz, Germany) and anti-GAPDH (Abnova).
Molecule,effect on RA/arsenic-induced growth arrest [1],effect on RA/arsenic-induced NPM-1 degradation (mutant NPM-1; addition of the proteasome inhibitor),effect of pre-treatment on arsenic-induced degradation of mutant NPM-1 (mutant NPM-1; data not shown)
CC(C)C[C@H](NC(=O)[C@H](Cc1ccccc1)NC(=O)c1cnccn1)B(O)O [PS-341],reversed,reversed,–
interferon alpha,–,–,significantly accelerated
